PubChem BioAssay AID342 (DTP/NCI, 2004)
Values joined by “and” are separate entries in the source; they are usually repeats but may differ in a detail not shown here. Equal values may be shown once.

Test system: Swiss mice, Sarcoma 180 sc, mean tumor weight T/C
Test: NCI In Vivo Anticancer Drug Screen. Data for tumor model Sarcoma 180 (subcutaneous) in Swiss mice
Conditions: endpoint: mean tumor weight, higher = larger tumour
Summary of the method: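 T/C ratio: treated over vehicle-treated controls, measuring survival or tumor size in transplanted-tumor mice.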

Question: `O=C(O)Cc1c[nH]c2ccccc12` was tested. Which T/C (dose: 31.3 mg/kg/injection, schedule: Q01DX007 (ip), vehicle: saline) did it give?
Answer: 64 % of control

Question: What about the T/C (dose: 62.5 mg/kg/injection, schedule: Q01DX007 (ip), vehicle: saline) of the same compound?
Answer: 71 % of control

Question: And the T/C (dose: 125.0 mg/kg/injection, schedule: Q01DX007 (ip), vehicle: saline)?
Answer: 52 % of control

Question: What about the T/C (dose: 250.0 mg/kg/injection, schedule: Q01DX007 (ip), vehicle: saline) of the same compound?
Answer: 95 % of control

Question: `O=C(CCBr)N1CCCN(C(=O)CCBr)CC1` was tested. Which T/C (dose: 147.0 mg/kg/injection, schedule: Q01DX007 (ip), vehicle: carboxymethylcellulose (CMC)) did it give?
Answer: 49 % of control

Question: What about the T/C (dose: 223.0 mg/kg/injection, schedule: Q01DX007 (ip), vehicle: carboxymethylcellulose (CMC)) of the same compound?
Answer: 46 % of control

Question: For `O=[As]O`, which T/C (dose: 1.67 mg/kg/injection, schedule: Q01DX007 (ip), vehicle: carboxymethylcellulose (CMC)) is on record?
Answer: 90 % of control

Question: And the T/C (dose: 3.12 mg/kg/injection, schedule: Q#A X014 (ip), vehicle: carboxymethylcellulose (CMC))?
Answer: 121 % of control

Question: And the T/C (dose: 3.33 mg/kg/injection, schedule: Q01DX007 (ip), vehicle: carboxymethylcellulose (CMC))?
Answer: 78 % of control

Question: What about the T/C (dose: 3.37 mg/kg/injection, schedule: Q01DX007 (ip), vehicle: carboxymethylcellulose (CMC)) of the same compound?
Answer: 98 % of control

Question: What about the T/C (dose: 5.0 mg/kg/injection, schedule: Q01DX007 (ip), vehicle: carboxymethylcellulose (CMC)) of the same compound?
Answer: 66 % of control

Question: What about the T/C (dose: 6.25 mg/kg/injection, schedule: Q#A X014 (ip), vehicle: carboxymethylcellulose (CMC)) of the same compound?
Answer: 99 % of control

Question: And the T/C (dose: 6.65 mg/kg/injection, schedule: Q01DX007 (ip), vehicle: carboxymethylcellulose (CMC))?
Answer: 85 % of control

Question: What about the T/C (dose: 7.0 mg/kg/injection, schedule: Q01DX007 (ip), vehicle: carboxymethylcellulose (CMC)) of the same compound?
Answer: 90 % of control

Question: And the T/C (dose: 9.0 mg/kg/injection, schedule: Q01DX007 (ip), vehicle: carboxymethylcellulose (CMC))?
Answer: 83 % of control

Question: What about the T/C (dose: 11.0 mg/kg/injection, schedule: Q01DX007 (ip), vehicle: carboxymethylcellulose (CMC)) of the same compound?
Answer: 64 % of control

Question: Which results are given for `CN(C)[C@@H]1C(=O)C(C(=O)NCc2nc3[nH]cnc(=S)c3[nH]2)=C(O)[C@@]2(O)C(=O)C3=C(O)c4c(O)cccc4[C@@](C)(O)[C@H]3C[C@@H]12`?
Answer: T/C (dose: 14.0 mg/kg/injection, schedule: Q01DX007 (ip), vehicle: carboxymethylcellulose (CMC)): 71 % of control; T/C (dose: 28.0 mg/kg/injection, schedule: Q01DX007 (ip), vehicle: carboxymethylcellulose (CMC)): 58 % of control; T/C (dose: 56.0 mg/kg/injection, schedule: Q01DX007 (ip), vehicle: carboxymethylcellulose (CMC)): 54 % of control and 62 % of control; T/C (dose: 224.0 mg/kg/injection, schedule: Q01DX007 (ip), vehicle: carboxymethylcellulose (CMC)): 29 % of control

Question: How did the T/C (dose: 110.0 mg/kg/injection, schedule: Q01DX007 (ip), vehicle: carboxymethylcellulose (CMC)) turn out when `CC(CNC(=O)CCBr)NC(=O)CCBr` (stereo not drawn) was run?
Answer: 48 % of control and 64 % of control

Question: And the T/C (dose: 167.8 mg/kg/injection, schedule: Q01DX007 (ip), vehicle: carboxymethylcellulose (CMC))?
Answer: 48 % of control

Question: And the T/C (dose: 168.0 mg/kg/injection, schedule: Q01DX007 (ip), vehicle: carboxymethylcellulose (CMC))?
Answer: 34 % of control
